Experimental data taken from US12539298B2, “Lobinaline N-oxides as positive allosteric modulators of the dopamine transporter with potential value in the treatment of substance abuse disorders” (University of Kentucky Research Foundation, priority 2019, dated 2026).

Experiments:
nicAChR = experiment: 45Ca2+ entry into SHSY5Y cells; type: cell-based; conditions: conclusion from 45Ca2+ entry
Text: Effects of lobinaline and nicotine on ^45Ca^2+ entry into SHSY5Y cells: nicAChR function can be evaluated semi-quantitatively in this cell line by measuring ^45Ca^2+ entry in response to nicotine. […] The lobinaline N-oxides have not yet been tested in this system.

[1] = conditioned place preference (abuse potential); type: in vivo, SD rats
Text: In conditioned place preference a chamber with distinct cues is repeatedly paired with administration of the test drug. A second chamber is repeatedly paired with a control injection. After conditioning, a test phase allows the rat to move between the chambers. If a drug is “rewarding” (i.e. has abuse potential), the rat spends more time in the drug-associated chamber. If it is aversive, the opposite result is obtained.
Methods: 6 male and 6 female SD rats were used for each drug and dose. Test drugs (5 or 25 mg/kg lobinaline, or 25 mg/Kg of lobinaline bi-N-oxide S.C) were paired with the “less preferred” compartment (standard for drugs that may be weakly reinforcing) for 20 minutes. On the next day, rats received a control (DMSO/saline) injection and were placed in the preferred chamber. After three repeated pairings (test and control), the subjects were given access to both chambers and the time spent in each compartment was recorded and scored by an observer blind to treatment. Analysis was by two way ANOVA with post hoc Bonnferoni with significance set at p<0.05. Results. Most animals spent most of the test period in the compartment originally preferred in the drug-free state, and there were no significant differences between drug and vehicle controls.

CN1CCCC2C(c3ccccc3)C(C3=NCCCC3)C(c3ccccc3)CC21 (stereo not shown) [lobinaline]
mode of action at nicAChRs (nicAChR): weak partial agonist
overt toxicity ([1]; after 3 repeated drug administrations): no signs of overt toxicity
sedation or locomotor activation ([1]; lobinaline 5 or 25 mg/kg, bi-N-oxide 25 mg/Kg S.C): no sedation or locomotor activation
conditioned place preference or aversion ([1]; lobinaline 5 or 25 mg/kg, bi-N-oxide 25 mg/Kg S.C, three pairings): neither lobinaline nor the lobinaline bi-N-oxide produced conditioned place preference or aversion
